17 compounds from patent publication US12570659B2, “Bicyclic heteroaryl compounds useful as IRAK4 inhibitors” (BRISTOL-MYERS SQUIBB COMPANY, priority 2019, dated 2026) can be followed below.

One assay deals with JAK3 kinase (Homo sapiens (Human), UniProt P52333). The assay can be described thus: JAK3 Homogeneous Time Resolved Fluorescence (HTRF) Assay. Format: binding. Conditions: for IC50: competition binding with fluorescein-labeled ATP competitive probe; for Ratio of JAK3 IC50 to IRAK4 IC50: selectivity for IRAK4 over JAK3. How it is done:
JAK3 Homogeneous Time Resolved Fluorescence (HTRF) Assay
A time resolved FRET-based competition binding assay was used to assess test article binding to JAK3 kinase. His-tagged or GST-tagged kinase at a concentration of 1 nM was incubated with 0.2 nM Tb-labeled detection antibody (anti-His or anti-GST), test compound, and fluorescein-labeled ATP competitive probe at a concentration corresponding to the probe's equilibrium dissociation constant for one hour. Fluorescence at 495 nm and 520 nm was measured using an EnVision microplate reader to quantify FRET between Tb-labeled detection antibody and fluorescein-labeled probe. Background subtracted FRET ratios were normalized to the maximum signal obtained in the absence of test compound. These values were converted to a percent inhibition. Percent inhibition was determined for test compounds at 11 concentrations. The IC50, defined as the concentration of the competing test compound needed to reduce specific binding of the probe by 50%, was calculated using the 4 parameter logistic equation to fit the data.

In the next assay the target is IRAK4 (Homo sapiens (Human), UniProt Q9NWZ3). The assay can be described thus: IRAK4 Inhibition Assay. Format: biochemical. Conditions: ATP 500 μM; IRAK4 0.6 nM; 60 min room temperature. How it is done:
IRAK4 Inhibition Assay The assays were performed in U-bottom 384-well plates. […] The reaction was initiated by the combination of IRAK4 with substrates and test compounds. The reaction mixture was incubated at room temperature for 60 min. and terminated by adding 45 μL of 35 mM EDTA to each sample. The reaction mixture was analyzed on the Caliper LABCHIP® 3000 (Caliper, Hopkinton, MA) by electrophoretic separation of the fluorescent substrate and phosphorylated product. Inhibition data were calculated by comparison to no enzyme control reactions for 100% inhibition and vehicle-only reactions for 0% inhibition.

The structures appear in SMILES notation. A value given as a limit tells only on which side of the number the result lay.

Sequence of JAK3 kinase (P52333 whole entry): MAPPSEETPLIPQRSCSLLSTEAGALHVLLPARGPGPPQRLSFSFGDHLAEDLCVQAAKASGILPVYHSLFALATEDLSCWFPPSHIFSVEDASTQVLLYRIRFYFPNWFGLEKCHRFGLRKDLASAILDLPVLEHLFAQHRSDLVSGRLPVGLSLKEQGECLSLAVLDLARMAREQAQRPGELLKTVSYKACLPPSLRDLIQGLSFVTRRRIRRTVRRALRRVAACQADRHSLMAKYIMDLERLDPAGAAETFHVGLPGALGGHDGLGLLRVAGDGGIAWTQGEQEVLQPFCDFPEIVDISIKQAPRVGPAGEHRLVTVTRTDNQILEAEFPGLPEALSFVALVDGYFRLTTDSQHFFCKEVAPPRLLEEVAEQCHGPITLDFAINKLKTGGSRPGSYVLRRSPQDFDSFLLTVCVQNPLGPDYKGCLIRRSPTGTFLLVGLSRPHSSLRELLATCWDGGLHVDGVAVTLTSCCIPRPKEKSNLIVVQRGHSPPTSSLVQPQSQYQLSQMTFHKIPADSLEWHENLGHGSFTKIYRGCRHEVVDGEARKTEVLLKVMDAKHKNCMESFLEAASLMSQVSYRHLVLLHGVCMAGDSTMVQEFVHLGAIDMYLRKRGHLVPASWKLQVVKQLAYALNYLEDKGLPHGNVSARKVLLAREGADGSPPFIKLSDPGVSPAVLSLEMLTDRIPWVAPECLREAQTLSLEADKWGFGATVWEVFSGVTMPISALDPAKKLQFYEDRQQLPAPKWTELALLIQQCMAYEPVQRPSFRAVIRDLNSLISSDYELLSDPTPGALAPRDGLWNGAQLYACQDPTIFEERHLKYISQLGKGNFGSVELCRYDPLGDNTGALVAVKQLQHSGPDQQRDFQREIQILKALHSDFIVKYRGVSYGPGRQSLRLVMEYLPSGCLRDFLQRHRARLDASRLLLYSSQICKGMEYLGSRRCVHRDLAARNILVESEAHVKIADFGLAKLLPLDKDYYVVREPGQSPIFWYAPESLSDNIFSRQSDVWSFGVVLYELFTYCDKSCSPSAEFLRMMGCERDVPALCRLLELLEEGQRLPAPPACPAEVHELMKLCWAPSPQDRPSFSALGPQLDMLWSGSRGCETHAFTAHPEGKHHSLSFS
Sequence of IRAK4 (Q9NWZ3 whole entry, species assumed): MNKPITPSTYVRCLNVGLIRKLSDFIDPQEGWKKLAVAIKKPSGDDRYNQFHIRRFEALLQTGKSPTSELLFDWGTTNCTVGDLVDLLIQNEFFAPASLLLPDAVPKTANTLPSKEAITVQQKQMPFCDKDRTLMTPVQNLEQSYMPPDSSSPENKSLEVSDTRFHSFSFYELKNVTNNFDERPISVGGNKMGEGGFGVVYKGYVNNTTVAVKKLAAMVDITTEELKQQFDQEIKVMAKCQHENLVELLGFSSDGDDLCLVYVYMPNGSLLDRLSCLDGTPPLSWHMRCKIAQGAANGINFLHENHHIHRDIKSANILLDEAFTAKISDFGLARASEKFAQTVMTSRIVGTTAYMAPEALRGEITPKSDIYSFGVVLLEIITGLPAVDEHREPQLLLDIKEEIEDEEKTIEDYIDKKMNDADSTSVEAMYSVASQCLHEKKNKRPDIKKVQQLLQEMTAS

For the compound `CC(C)Nc1c(C(=O)NC[C@@H](F)C(C)(C)O)cnn2cc(Nc3cc(C#N)ccn3)cc12` [Example 41, (R)-6-((4-cyanopyridin-2-yl)amino)-N-(2-fluoro-3-hydroxy-3-methylbutyl)-4-(isopropylamino)pyrrolo[1,2-b]pyridazine-3-carboxamide], the IC50 (in general, the point on the concentration scale where inhibition reaches its midpoint) was more than 50000 nM on JAK3 kinase and 620 nM on IRAK4. For the same compound, the “Ratio of JAK3 IC50 to IRAK4 IC50” value at JAK3 kinase is listed as more than 81.
The matching figures for `CC(C)Nc1c(C(=O)NC[C@@H](F)C(C)(C)O)cnn2cc(Nc3ncc(C#N)cc3Cl)cc12` [Example 42, (R)-6-((3-chloro-5-cyanopyridin-2-yl)amino)-N-(2-fluoro-3-hydroxy-3-methylbutyl)-4-(isopropylamino)pyrrolo[1,2-b]pyridazine-3-carboxamide]: more than 50000 nM, 26 nM and more than 1923.
The matching figures for `CC(C)Nc1c(C(=O)NC[C@@H](F)C(C)(C)O)cnn2cc(Nc3ccncn3)cc12` [Example 43, (R)—N-(2-fluoro-3-hydroxy-3-methylbutyl)-4-(isopropylamino)-6-(pyrimidin-4-ylamino) pyrrolo[1,2-b] pyridazine-3-carboxamide]: more than 50000 nM, 81 nM and more than 617.
Turning to `CC(C)Nc1c(C(=O)NC[C@@H](F)C(C)(C)O)cnn2cc(-c3cnoc3)cc12` [Example 44, (R)—N-(2-fluoro-3-hydroxy-3-methylbutyl)-4-(isopropylamino)-6-(isoxazol-4-yl)pyrrolo[1,2-b]pyridazine-3-carboxamide], the results for the IC50 at JAK3 kinase and on IRAK4 were more than 50000 nM and 1500 nM, respectively. The “Ratio of JAK3 IC50 to IRAK4 IC50” value on JAK3 kinase is more than 33.
The matching figures for `CC(C)Nc1c(C(=O)NC[C@@H](F)C(C)(C)O)cnn2cc(-c3ccncc3F)cc12` [Example 47, (R)—N-(2-fluoro-3-hydroxy-3-methylbutyl)-6-(3-fluoropyridin-4-yl)-4-(isopropylamino)pyrrolo[1,2-b]pyridazine-3-carboxamide]: more than 50000 nM, 3.5 nM and more than 14286.
As to `CC(C)Nc1c(C(=O)N[C@H]2CC[C@H](N)CC2)cnn2cc(-c3cccnc3)cc12` [Example 52, N-((1r,4r)-4-aminocyclohexyl)-4-(isopropylamino)-6-(pyridin-3-yl)pyrrolo[1,2-b]pyridazine-3-carboxamide], at JAK3 kinase, the half-inhibitory concentration (IC50) was approximately 43000 nM and the “Ratio of JAK3 IC50 to IRAK4 IC50” value is reported as approximately 1075. The 50% inhibitory concentration (IC50) on IRAK4 came to 40 nM.
With `CC(C)Nc1c(C(=O)NC[C@@H](F)C(C)(C)O)cnn2cc(-c3ccnc(N4CCOCC4)c3F)cc12` [Example 53, (R)-6-(3-fluoro-2-morpholinopyridin-4-yl)-N-(2-fluoro-3-hydroxy-3-methylbutyl)-4-(isopropylamino)pyrrolo[1,2-b]pyridazine-3-carboxamide], at JAK3 kinase, the half-inhibitory concentration (IC50) was approximately 50000 nM and the “Ratio of JAK3 IC50 to IRAK4 IC50” value is approximately 500. On IRAK4, the half-inhibitory concentration (IC50) is 100 nM.
With `COc1cc(-c2cc3c(NC(C)C)c(C(=O)N[C@H]4CC[C@H](O)CC4)cnn3c2)c(F)cn1` [Example 57, 6-(5-fluoro-2-methoxypyridin-4-yl)-N-((1r,4r)-4-hydroxycyclohexyl)-4-(isopropylamino)pyrrolo[1,2-b]pyridazine-3-carboxamide], at JAK3 kinase, the IC50 is more than 50000 nM and the “Ratio of JAK3 IC50 to IRAK4 IC50” value was more than 2500. In addition, the concentration for half-maximal inhibition (IC50) on IRAK4 worked out at 20 nM.
Consider `CC(C)Nc1c(C(=O)N[C@H]2CC[C@H](O)CC2)cnn2cc(-c3cccnc3)cc12` [Example 58, N-((1r,4r)-4-hydroxycyclohexyl)-4-(isopropylamino)-6-(pyridin-3-yl)pyrrolo[1,2-b]pyridazine-3-carboxamide], for which, on JAK3 kinase, the IC50 was more than 50000 nM and the “Ratio of JAK3 IC50 to IRAK4 IC50” value is more than 926. Further, the 50% inhibitory concentration (IC50) at IRAK4 is 54 nM.
As for `COc1ncccc1-c1cc2c(NC(C)C)c(C(=O)N[C@H]3CC[C@H](NC(C)=O)CC3)cnn2c1` [Example 59, N-((1r,4r)-4-acetamidocyclohexyl)-4-(isopropylamino)-6-(2-methoxypyridin-3-yl)pyrrolo[1,2-b]pyridazine-3-carboxamide], on JAK3 kinase, the concentration for half-maximal inhibition (IC50) is approximately 33000 nM and the “Ratio of JAK3 IC50 to IRAK4 IC50” value is given as approximately 1138. At IRAK4, the IC50 is 29 nM.
For `CC(=O)N[C@H]1CC[C@H](NC(=O)c2cnn3cc(-c4cn[nH]c4)cc3c2NC(C)C)CC1` [Example 61, N-((1r,4r)-4-acetamidocyclohexyl)-4-(isopropylamino)-6-(1H-pyrazol-4-yl)pyrrolo[1,2-b]pyridazine-3-carboxamide], at JAK3 kinase, the IC50 is more than 50000 nM and the “Ratio of JAK3 IC50 to IRAK4 IC50” value is more than 4545. The IC50 on IRAK4 was found to be 11 nM.
The matching figures for `CC(=O)N[C@H]1CC[C@H](NC(=O)c2cnn3cc(-c4c(C)ccnc4F)cc3c2NC(C)C)CC1` [Example 66, N-((1r,4r)-4-acetamidocyclohexyl)-6-(2-fluoro-4-methylpyridin-3-yl)-4-(isopropylamino)pyrrolo[1,2-b]pyridazine-3-carboxamide]: 18000 nM, 305 and 59 nM.
As to `CCOC(=O)N[C@H]1CC[C@H](NC(=O)c2cnn3cc(-c4ccncc4F)cc3c2NC(C)C)CC1` [Example 67, ethyl ((1r,4r)-4-(6-(3-fluoropyridin-4-yl)-4-(isopropylamino)pyrrolo[1,2-b]pyridazine-3-carboxamido)cyclohexyl)carbamate], on JAK3 kinase, the 50% inhibitory concentration (IC50) was more than 50000 nM and the “Ratio of JAK3 IC50 to IRAK4 IC50” value is 3846. In addition, the 50% inhibitory concentration (IC50) at IRAK4 stood at 13 nM.
As to `Cc1cnccc1-c1cc2c(NC(C)C)c(C(=O)NCCC(C)(C)O)cnn2c1` [Example 72, N-(3-hydroxy-3-methylbutyl)-4-(isopropylamino)-6-(3-methylpyridin-4-yl)pyrrolo[1,2-b]pyridazine-3-carboxamide], the results for the 50% inhibitory concentration (IC50) on JAK3 kinase and at IRAK4 were more than 50000 nM and 70 nM, respectively. The “Ratio of JAK3 IC50 to IRAK4 IC50” value on JAK3 kinase was more than 714.
On to `CC(=O)N[C@H]1CC[C@H](NC(=O)c2cnn3cc(-c4ccc(C(N)=O)cc4)cc3c2NC(C)C)CC1` [Example 74, N-((1r,4r)-4-acetamidocyclohexyl)-6-(4-carbamoylphenyl)-4-(isopropylamino)pyrrolo[1,2-b] pyridazine-3-carboxamide], for which, at JAK3 kinase, the IC50 is more than 50000 nM and the “Ratio of JAK3 IC50 to IRAK4 IC50” value is reported as more than 521. The IC50 on IRAK4 turned out to be 96 nM.
Turning to `CC(=O)N[C@H]1CC[C@H](NC(=O)c2cnn3cc(-c4cnc(F)cc4C)cc3c2NC(C)C)CC1` [Example 75, N-((1r,4r)-4-acetamidocyclohexyl)-6-(6-fluoro-4-methylpyridin-3-yl)-4-(isopropylamino)pyrrolo[1,2-b]pyridazine-3-carboxamide], on JAK3 kinase, the IC50 is approximately 22000 nM and the “Ratio of JAK3 IC50 to IRAK4 IC50” value was approximately 3793. For the same compound, on IRAK4, the IC50 is 5.8 nM.
`CC(=O)N[C@H]1CC[C@H](NC(=O)c2cnn3cc(-c4ccc(C(N)=O)cc4F)cc3c2NC(C)C)CC1` [Example 76, N-((1r,4r)-4-acetamidocyclohexyl)-6-(4-carbamoyl-2-fluorophenyl)-4-(isopropylamino) pyrrolo[1,2-b]pyridazine-3-carboxamide]: at JAK3 kinase, the concentration for half-maximal inhibition (IC50) is more than 50000 nM and the “Ratio of JAK3 IC50 to IRAK4 IC50” value was more than 543. Besides, the half-maximal inhibitory concentration (IC50) on IRAK4 was 92 nM.
